Source: patent US20140024638A1, “TREATMENT OF COGNITIVE DYSFUNCTION IN SCHIZOPHRENIA” (TARGACEPT, INC., priority 2011, published 2014)
“Also recorded” adds a separate entry of the source.

Tests used:
Assay type in all cases: in vivo, human
[1] = test system: patients with schizophrenia; assay: Subject Global Impression - Cognition scale (SGI-Cog), Phase 2 trial; details: total population; Week 12, 25 mg daily; 1-tailed p = 0.046
Method: (§1) The double blind, placebo controlled Phase 2 trial was conducted at 7 sites in the United States and 12 sites in India. […] Of the randomized patients, approximately 69% were male and approximately 46% were users of tobacco products. […] The primary efficacy outcome measure was GMLT, and the trial included a number of other scales as secondary efficacy outcome measures.

[2] = test system: patients with schizophrenia; assay: CogState Schizophrenia Battery Composite score, Phase 2 trial; details: for CogState Composite score: Mean (SE): tobacco users meeting data integrity criteria; for CogState Composite score: Mean (SEM): total population, subjects meeting data integrity criteria
Method: As provided in the above-referenced brochure, CogState is a provider of cognitive testing products and services that predominantly caters to the global pharmaceutical industry. The Schizophrenia Cognitive Test Battery covers all domains identified by MATRICS initiative; requires around 35 minutes for administration; is sensitive to the effects of novel compounds and licensed medication; is sensitive to the effects of medication in groups or individual patients; and the outcome measures are related to functional status.
as §1

[3] = test system: patients with schizophrenia; assay: Clinical Global Impression - Severity (CGI-S), Phase 2 trial; details: for CGI-SEVERITY: Adjusted Mean / CGI-SEVERITY: Mean Difference ± SE between TC-5619 and Placebo (Placebo-TC5619): All Patients; for CGI-S: Mean (SE): tobacco users; for CGI-S: Mean (SEM): total population
Method: as §1

[4] = test system: patients with schizophrenia; assay: CogState Identification task (attention), Phase 2 trial; details: for CogState Identification: Mean (SE): tobacco users meeting data integrity criteria; for CogState Identification: Mean (SEM): total population, subjects meeting data integrity criteria
Method: as §1

[5] = test system: patients with schizophrenia; assay: Clinical Global Impression - Global Improvement (CGI-I, CGI Global Change), Phase 2 trial; details: for CGI Global Change: Adjusted Mean / CGI Global Change: Mean Difference ± SE between TC-5619 and Placebo (Placebo-TC5619): All Patients; for CGI-I: Mean (SE): tobacco users; for CGI-I: Mean (SEM): total population
Method: as §1

[6] = test system: patients with schizophrenia; assay: CogState 1-Back task (working memory), Phase 2 trial; details: for CogState 1-Back: Mean (SE): tobacco users meeting data integrity criteria; for CogState 1-Back: Mean (SEM): total population, subjects meeting data integrity criteria
Method: as §1

[7] = test system: patients with schizophrenia; assay: Phase 2 trial, safety and tolerability
Method: as §1

Compound: O=C(N[C@@H]1C2CCN(CC2)[C@H]1Cc1cccnc1)c1cc2ccccc2o1 (single isomer, unassigned) [TC-5619]
- SGI-Cog: Mean (SEM) [1]: 0.66 (0.39); p = 0.046
- CogState composite score, result in words ([2]; in vivo): statistically significant results of improvement
- CogState Composite score: Mean (SE) ([2]; Week 4, 1 mg daily, 1-tailed p = 0.471): 0.007 0.099); p = 0.471
- CogState Composite score: Mean (SE) ([2]; Week 8, 5 mg daily, 1-tailed p = 0.614): −0.029 (0.101); p = 0.614
- CogState Composite score: Mean (SE) ([2]; Week 12, 25 mg daily, 1-tailed p = 0.098): 0.129 0.100); p = 0.098 ^
- CogState Composite score: Mean (SEM) ([2]; Week 4, 1 mg daily, 1-tailed p = 0.838): −0.066 (0.066); p = 0.838
- CogState Composite score: Mean (SEM) ([2]; Week 8, 5 mg daily, 1-tailed p = 0.821): −0.062 .068); p = 0.821^
- CogState Composite score: Mean (SEM) ([2]; Week 12, 25 mg daily, 1-tailed p = 0.326): 0.030 0.067); p = 0.326 ^
- CGI-SEVERITY: Adjusted Mean ([3]; Week 1, 1 mg daily, SE 0.03, placebo −0.05): −0.03
- CGI-SEVERITY: Mean Difference ± SE between TC-5619 and Placebo (Placebo-TC5619) ([3]; Week 1, 1 mg daily, one-sided 90% CI (−0.07, ∞), one-sided P 0.7588): −0.02 ± 0.03
- CGI-SEVERITY: Adjusted Mean ([3]; Week 4, 1 mg daily, SE 0.05, placebo −0.09): −0.06
- CGI-SEVERITY: Mean Difference ± SE between TC-5619 and Placebo (Placebo-TC5619) ([3]; Week 4, 1 mg daily, one-sided 90% CI (−0.10, ∞), one-sided P 0.6737): −0.02 ± 0.06
- CGI-SEVERITY: Adjusted Mean ([3]; Week 8, 5 mg daily, SE 0.05, placebo −0.24): −0.23
- CGI-SEVERITY: Mean Difference ± SE between TC-5619 and Placebo (Placebo-TC5619) ([3]; Week 8, 5 mg daily, one-sided 90% CI (−0.09, ∞), one-sided P 0.5440): −0.01 ± 0.06
- CGI-SEVERITY: Adjusted Mean ([3]; Week 12, 25 mg daily, SE 0.07, placebo −0.29): −0.31
- CGI-SEVERITY: Mean Difference ± SE between TC-5619 and Placebo (Placebo-TC5619) ([3]; Week 12, 25 mg daily, one-sided 90% CI (−0.11, ∞), one-sided P 0.4495): 0.01 ± 0.09
- Clinical Global Impression - Severity, result in words ([3]; secondary outcome measure): did not demonstrate a drug effect
- CGI-S: Mean (SE) ([3]; Week 4, 1 mg daily, 1-tailed p = 0.434): 0.02 (0.09); p = 0.434
- CGI-S: Mean (SE) ([3]; Week 8, 5 mg daily, 1-tailed p = 0.224): 0.08 (0.10); p = 0.224
- CGI-S: Mean (SE) ([3]; Week 12, 25 mg daily, 1-tailed p = 0.308): 0.07 (0.14); p = 0.308
- CGI-S: Mean (SEM) ([3]; Week 4, 1 mg daily, 1-tailed p = 0.674): −0.02 (0.06); p = 0.674
- CGI-S: Mean (SEM) ([3]; Week 8, 5 mg daily, 1-tailed p = 0.544): −0.01 (0.06); p = 0.544
- CGI-S: Mean (SEM) ([3]; Week 12, 25 mg daily, 1-tailed p = 0.450): 0.01 (0.09); p = 0.450
- CogState identification (attention), result in words ([4]; in vivo): statistically significant results of improvement
- CogState Identification: Mean (SE) ([4]; Week 4, 1 mg daily, 1-tailed p = 0.097): −0.021 (0.016); p = 0.097
- CogState Identification: Mean (SE) ([4]; Week 8, 5 mg daily, 1-tailed p = 0.261): −0.011 (0.017); p = 0.261
- CogState Identification: Mean (SE) ([4]; Week 12, 25 mg daily, 1-tailed p = 0.057): −0.026 (0.016); p = 0.057
- CogState Identification: Mean (SEM) ([4]; Week 4, 1 mg daily, 1-tailed p = 0.311): −0.005 (0.011); p = 0.311
- CogState Identification: Mean (SEM) ([4]; Week 8, 5 mg daily, 1-tailed p = 0.111): −0.014 (0.012); p = 0.111
- CogState Identification: Mean (SEM) ([4]; Week 12, 25 mg daily, 1-tailed p = 0.063): −0.017 (0.011); p = 0.063
- CGI Global Change: Adjusted Mean ([5]; Week 1, 1 mg daily, SE 0.15, placebo 3.80): 3.77
- CGI Global Change: Mean Difference ± SE between TC-5619 and Placebo (Placebo-TC5619) ([5]; Week 1, 1 mg daily, one-sided 90% CI (−0.06, ∞), one-sided P 0.3434): 0.03 ± 0.07
- CGI Global Change: Adjusted Mean ([5]; Week 4, 1 mg daily, SE 0.16, placebo 3.64): 3.49
- CGI Global Change: Mean Difference ± SE between TC-5619 and Placebo (Placebo-TC5619) ([5]; Week 4, 1 mg daily, one-sided 90% CI (0.04, ∞), one-sided P 0.0485): 0.15 ± 0.09
- CGI Global Change: Adjusted Mean ([5]; Week 8, 5 mg daily, SE 0.16, placebo 3.30): 3.22
- CGI Global Change: Mean Difference ± SE between TC-5619 and Placebo (Placebo-TC5619) ([5]; Week 8, 5 mg daily, one-sided 90% CI (−0.07, ∞), one-sided P 0.2533): 0.08 ± 0.12
- CGI Global Change: Adjusted Mean ([5]; Week 12, 25 mg daily, SE 0.17, placebo 3.18): 3.03
- CGI Global Change: Mean Difference ± SE between TC-5619 and Placebo (Placebo-TC5619) ([5]; Week 12, 25 mg daily, one-sided 90% CI (−0.03, ∞), one-sided P 0.1502): 0.15 ± 0.14
- Clinical Global Impression - Global Improvement, result in words ([5]; secondary outcome measure, investigator assessment of overall response): encouraging efficacy signals
- CGI-I: Mean (SE) ([5]; Week 4, 1 mg daily, 1-tailed p = 0.047): 0.25 (0.14); p = 0.047
- CGI-I: Mean (SE) ([5]; Week 8, 5 mg daily, 1-tailed p = 0.075): 0.24 (0.16); p = 0.075
- CGI-I: Mean (SE) ([5]; Week 12, 25 mg daily, 1-tailed p = 0.189): 0.18 (0.20); p = 0.189
- CGI-I: Mean (SEM) ([5]; Week 4, 1 mg daily, 1-tailed p = 0.049): 0.15 (0.09); p = 0.049
- CGI-I: Mean (SEM) ([5]; Week 8, 5 mg daily, 1-tailed p = 0.253): 0.08 (0.12); p = 0.253
- CGI-I: Mean (SEM) ([5]; Week 12, 25 mg daily, 1-tailed p = 0.150): 0.15 (0.14); p = 0.150
- CogState 1-back (working memory), result in words ([6]; in vivo): statistically significant results of improvement
- CogState 1-Back: Mean (SE) ([6]; Week 4, 1 mg daily, 1-tailed p = 0.605): 0.005 (0.021); p = 0.605
- CogState 1-Back: Mean (SE) ([6]; Week 8, 5 mg daily, 1-tailed p = 0.329): −0.009 (0.021); p = 0.329
- CogState 1-Back: Mean (SE) ([6]; Week 12, 25 mg daily, 1-tailed p = 0.020): −0.042 (0.020); p = 0.020
- CogState 1-Back: Mean (SEM) ([6]; Week 4, 1 mg daily, 1-tailed p = 0.691): 0.007 (0.014); p = 0.691
- CogState 1-Back: Mean (SEM) ([6]; Week 8, 5 mg daily, 1-tailed p = 0.647): 0.005 (0.015); p = 0.647
- CogState 1-Back: Mean (SEM) ([6]; Week 12, 25 mg daily, 1-tailed p = 0.042): −0.024 (0.014); p = 0.042
- discontinuations due to adverse events, difference to placebo dose group ([7]; Phase 2 trial): no clinically significant difference
- tolerability ([7]; Phase 2 trial, 12 weeks, 1/5/25 mg daily, listed as (2S,3R)—N-(2-((3-pyridinyl)methyl)-1-azabicyclo[2.2.2]oct-3-yl)benzofuran-2-carb): well tolerated; also recorded: favorable tolerability profile
- serious adverse events in the dose group ([7]; one also in placebo dose group, considered by the investigator as not drug related): one
- nausea (most frequent adverse event more common than in placebo cohort) ([7]; placebo 0%, mild to moderate in severity, never led to patient dropout): 5%
